Source: ChEMBL document CHEMBL3507680, “University of Dundee, Gates Library screen for HepG2 cell viability”

Test: Human HepG2 cell viability assay in 384 well format
Assay type: toxicity, cell-based
Set-up: dose 125 nL, time 70.5 hour; concentration not given beside the values
Details: HepG2 cells, read-out: Inhibition

CNC(=O)c1cc(-n2ccnc2-c2cnc(N(C)C)nc2)ccc1OC
cytotoxicity at 70.5 h: 3.46%

Cc1cc2c(c(-c3cncc(C(=O)N4CCCC4)n3)c1)OC(CN)C2 (stereo not given)
cytotoxicity at 70.5 h: -6.51%

CSCC[C@H](NC(C)=O)c1nc(Cc2ccccc2)n[nH]1
cytotoxicity at 70.5 h: 6.58%

CSc1nc(O)c(Cc2ccccc2)c(=O)n1-c1ccccc1
cytotoxicity at 70.5 h: -6.85%

Cc1cc(CN(C)Cc2csc(-c3cccs3)n2)n[nH]1
cytotoxicity at 70.5 h: -1.87%

CCn1ncnc1CN(C/C=C/c1ccccc1)CCOC
cytotoxicity at 70.5 h: -1.42%

COc1cccc(-c2cc(-c3nc(CN4CCN(C)CC4)no3)[nH]n2)c1
cytotoxicity at 70.5 h: 6.39%

N#Cc1c(N)nc2c(c1-c1c[nH]nc1C1CCCCC1)COCC2
cytotoxicity at 70.5 h: 0.079%

COc1ccc(C(C)n2ccnc2-c2cc3n(n2)CCCNC3)cc1F (stereo not given)
cytotoxicity at 70.5 h: -0.853%

COc1ccc(C(C(=O)O)N(C)CCN2CCOCC2)c(C)c1 (stereo not given)
cytotoxicity at 70.5 h: -11.3%

Cc1nc2c(N(CCC(N)=O)CCc3ccccc3)ncnc2o1
cytotoxicity at 70.5 h: 22%

CCc1cc(NCC(N)=O)nc(N2CCCCC2)n1
cytotoxicity at 70.5 h: -8.82%

Cc1ccccc1CN1CCNC(=O)C1CC(=O)NCC1CCCCC1 (stereo not given)
cytotoxicity at 70.5 h: -7.5%

CC(=O)CN1CCC2(CC1)c1ccccc1[C@@H](N1CCSCC1)[C@@H]2O
cytotoxicity at 70.5 h: -5.27%

COc1cccc(NC(=O)NCC2CCCN(C3CCOCC3)C2)c1 (stereo not given)
cytotoxicity at 70.5 h: -8.3%

CCCS(=O)(=O)N[C@H]1CN(c2ncccc2C(N)=O)C[C@@H]1C(C)C
cytotoxicity at 70.5 h: 0.22%

CCN(C)S(=O)(=O)NCC1CCCN(Cc2ccccc2F)C1 (stereo not given)
cytotoxicity at 70.5 h: -4.79%

Cc1n[nH]c(C)c1CCCN(C)Cc1c[nH]nc1-c1ccc(F)cc1
cytotoxicity at 70.5 h: -4.19%

CCNC(=O)[C@@H]1C[C@H](NC(=O)Cn2ccnc2)CN1Cc1ccsc1
cytotoxicity at 70.5 h: 14.3%

CC(=O)N[C@H]1CCN(C(=O)c2cc(Cn3cnc4ccccc43)[nH]n2)C1
cytotoxicity at 70.5 h: -3.6%

CC(C)n1cnnc1CN(C)C(=O)Cn1ccc2ccccc2c1=O
cytotoxicity at 70.5 h: -8.95%

O=C1NCC2=C1C(c1ccc(O)cc1)Nc1ccccc1N2 (stereo not given)
cytotoxicity at 70.5 h: -6.66%

Cc1noc(CN(C)CC2(O)CCCN(CCC3CCCCC3)C2=O)n1 (stereo not given)
cytotoxicity at 70.5 h: -0.981%

COCCNc1cc(-c2ccccc2CCN)c2cc[nH]c2n1
cytotoxicity at 70.5 h: -2.8%

CS(=O)(=O)c1ccc(CN2CCCC3(C2)C(=O)Nc2ccccc23)cc1 (stereo not given)
cytotoxicity at 70.5 h: 24.9%

COc1cc(N2CCC(c3nccn3Cc3ccccc3)CC2)ncn1
cytotoxicity at 70.5 h: -1.15%

CC(C)C1CN(C(=O)c2cn3cc(Cl)cnc3n2)CCCN1CC1CC1 (stereo not given)
cytotoxicity at 70.5 h: 20.2%

CN1CCc2[nH]nc(C(=O)N3CCCC4(CC3)CNC(=O)O4)c2C1 (stereo not given)
cytotoxicity at 70.5 h: -3.37%

CC(=O)N[C@@H](CC(C)C)C(=O)N1CCC(n2cc(CC(C)C)nn2)CC1
cytotoxicity at 70.5 h: 6.61%

CN(C)C(C(=O)N1CC(Oc2ccccc2F)C1)c1ccccc1F (stereo not given)
cytotoxicity at 70.5 h: 12.3%

O=C(c1cncc(NCC2COc3ccccc3C2)n1)N1CCCCC1 (stereo not given)
cytotoxicity at 70.5 h: 0.974%

O=C(c1cccc2ccnn12)N1CCC[C@H]1CN1CCCC1
cytotoxicity at 70.5 h: 6.92%

Cc1nc2c(c(NCc3nc4ccccc4s3)n1)CCNCC2
cytotoxicity at 70.5 h: -4.98%

Cc1cc(C(=O)N(C)C2CCN(C)C2)c2ccc(F)cc2n1 (stereo not given)
cytotoxicity at 70.5 h: 23.7%

Cn1ncc2c(N3CCCC4(CCNC4)C3)nc(C(C)(C)C)nc21 (stereo not given)
cytotoxicity at 70.5 h: -11.5%

COc1cccc(CC2(C(=O)O)CCN(c3ccc(Cl)cn3)CC2)c1
cytotoxicity at 70.5 h: -3.25%

Cc1ccc(OCC2CCCN(C(=O)CCn3ccccc3=O)C2)cc1 (stereo not given)
cytotoxicity at 70.5 h: 0.753%

Cc1sc2nc(CCN)nc(N3CCN(S(C)(=O)=O)CC3)c2c1C
cytotoxicity at 70.5 h: -8.4%

CC(=O)Nn1c(C)cc(CN2CCC(c3ccncc3)CC2)c1C
cytotoxicity at 70.5 h: -2.26%

CCC(Nc1cccc(OC)c1)C(=O)N(CCOC)Cc1cnn(C)c1 (stereo not given)
cytotoxicity at 70.5 h: -1.31%

Cc1ncsc1CCN(C)Cc1cc2n(n1)CCN(Cc1ccco1)C2
cytotoxicity at 70.5 h: -16.9%

CS(=O)(=O)N1C[C@@H]2CC[C@H](C1)N(CCC(=O)NCc1ccco1)C2
cytotoxicity at 70.5 h: 4.49%

CC(C)CN1CC(c2nc(-c3ccc(F)cc3)c[nH]2)CC1=O (stereo not given)
cytotoxicity at 70.5 h: -7.74%

CC(C)(C)c1csc(CNC(=O)C2NCCc3[nH]cnc32)n1 (stereo not given)
cytotoxicity at 70.5 h: -9.53%

Cc1cccc(CN(C(=O)CCn2cncn2)C(C)C)c1
cytotoxicity at 70.5 h: -9.18%

CN(C)c1ccc(CC(=O)N2C[C@H](C3CC3)[C@@H](N)C2)cc1
cytotoxicity at 70.5 h: 0.366%

CN(CC(=O)N1CCOC(CCc2ccccc2)C1)Cc1ccccn1 (stereo not given)
cytotoxicity at 70.5 h: -7.68%

Cc1cc(NCCCc2c(C)noc2C)nc(N)n1
cytotoxicity at 70.5 h: -10.4%

CCc1c(C)sc2ncnc(N3CCN(C4CCOCC4)CC3)c12
cytotoxicity at 70.5 h: -11.1%

CCN(C(=O)c1c(Cl)cnn1CC)C(C)C(N)=O (stereo not given)
cytotoxicity at 70.5 h: -11.3%

COCCOCC(=O)N1C[C@H]2CC[C@@H]1CN(C1Cc3ccccc3C1)C2
cytotoxicity at 70.5 h: -9.96%

COc1cc(Cl)cc(C(=O)N2CCC3(CCCNC3)C2)c1 (stereo not given)
cytotoxicity at 70.5 h: -5.79%

C[C@@H]1CN(C(=O)CCCN2CCOCC2)C[C@@]1(O)C1CC1
cytotoxicity at 70.5 h: -5.23%

COCCN(Cc1cccc(OCCO)c1)Cc1ccccc1F
cytotoxicity at 70.5 h: -2.88%

COc1cc(C2CC(=O)Nc3c2nc2n3CCCC2)cc(OC)c1O (stereo not given)
cytotoxicity at 70.5 h: -5.3%
